# Patent publication US20050004029A1, “Methods and compositions for treating vascular leak using hepatocyte growth factor” (priority 2001, published 2005)
# System: Rac GTPase
# Experiment: Rac GTPase activity, p21 Rac-binding domain assay
# Assay type: cell-based
# Details: HGF 10 ng/mL or Sph-1-P 1 μM for 1 or 5 min
# Method: Endothelial cells grown in 100 mm dishes were incubated with agonists in serum-free M199. Cells were lysed in 500 μl Mg^2+ lysis buffer (Upstate Biotechnology, Lake Placid, N.Y.) and homogenized by pipetting. After a brief centrifugation to remove the cell debris, 300 μl of supernatant was incubated with the agarose-conjugated p21-binding domain (PBD) of human PAK-1 (10 μg, 30 min, Upstate Biotechnology). The agarose beads were washed with 1 ml of lysis buffer 5 times and re-suspended in 30 μl of 2×SDS buffer. After 10 min centrifugation at 14,000 g, 15 μl of supernatant from each sample was subjected to electrophoresis in 15% PAGE. […] For total Rac protein measurement, 5 μl of the original cell lysates were used for electrophoresis and western analysis. […] Pulmonary artery endothelial cells were incubated with HGF (10 ng/mL) or Sph-1-P (1 μM) for 1 or 5 min. Cells were lysed, supernatants collected, and activated GTP-bound Rac was precipitated by agarose-conjugated human PAK-1 p21-binding domain and subsequently immunoblotted by anti-Rac mAb. Total Rac protein was detected using cell lysates.
substance,measurement,value
"HGF: heparin-binding glycoprotein, multifunctional cytokine, ligand of c-Met; purchased from R&D Systems",Rac activity,rapidly and transiently increases Rac activity
